The values below come from patent publication US10646488B2 (Araxes Pharma LLC, priority 2016, dated 2020).

This experiment deals with T1, KRAS G12C 1-169, his-tagged protein, GDP-loaded (Homo sapiens, UniProt P01116, G12C).
T1 construct: KRAS G12C 1-169, his-tagged protein, GDP-loaded
Put plainly: Covalent binding (% modification) to KRAS G12C by mass spectrometry. Further: test concentration or dose not given here. As to conditions: covalent binding to KRAS G12C after a three minute incubation period.

As for `C=CC(=O)N1C[C@H](C)N(c2nc(OCCN(CC)CC)nc3c(F)c(-c4c(C)ccc5cn[nH]c45)c(Cl)cc23)C[C@H]1C` [Compound 136, 1-((2R,5S)-4-(6-chloro-2-(2-(diethylamino)ethoxy)-8-fluoro-7-(6-methyl-1H-indazol-7-yl)quinazolin-4-yl)-2,5-dimethyl-piperazin-1-yl) prop-2-en-1-one], the Binding % entry was “+++ (+++ indicates binding activity greater than 90%)”.
In the case of `C=CC(=O)N1C[C@H](C)N(c2nc(OC3CCN(C4CC4)CC3)nc3c(F)c(-c4c(C)ccc5cn[nH]c45)c(Cl)cc23)C[C@H]1C` [Compound 137, 1-((2R,5S)-4-(6-chloro-2-((1-cyclopropyl-piperidin-4-yl)oxy)-8-fluoro-7-(6-methyl-1H-indazol-7-yl)quinazolin-4-yl)-2,5-dimethyl-piperazin-1-yl) prop-2-en-1-one] it was “+++ (+++ indicates binding activity greater than 90%)”; in that of `C=CC(=O)N1C[C@H](C)N(c2nc(N3CC4(CCN(C5CC5)C4)C3)nc3c(F)c(-c4c(C)ccc5[nH]ncc45)c(Cl)cc23)C[C@H]1C` [Compound 140, 1-((2R,5S)-4-(6-chloro-2-(6-cyclopropyl-2,6-diazaspiro[3.4]octan-2-yl)-8-fluoro-7-(5-methyl-1H-indazol-4-yl)quinazolin-4-yl)-2,5-dimethyl-piperazin-1-yl) prop-2-en-1-one], “++ (++ indicates binding activity from 50 to 90%)”.
In the case of `C=CC(=O)N1C[C@H](C)N(c2nc(COCc3ncccc3F)nc3c(F)c(-c4c(O)cccc4F)c(Cl)cc23)C[C@H]1C` [Compound 141, 1-((2R,5S)-4-(6-chloro-8-fluoro-7-(2-fluoro-6-hydroxyphenyl)-2-(((3-fluoro-pyridin-2-yl)methoxy)methyl)quinazolin-4-yl)-2,5-dimethyl-piperazin-1-yl) prop-2-en-1-one] it was “++ (++ indicates binding activity from 50 to 90%)”; in that of `C=CC(=O)N1C[C@H](C)N(c2nc(COCc3ncccc3F)nc3c(F)c(-c4c(C)ccc5[nH]ncc45)c(Cl)cc23)C[C@H]1C` [Compound 142, 1-((2R,5S)-4-(6-chloro-8-fluoro-2-(((3-fluoro-pyridin-2-yl)methoxy)methyl)-7-(5-methyl-1H-indazol-4-yl)quinazolin-4-yl)-2,5-dimethyl-piperazin-1-yl) prop-2-en-1-one], “++ (++ indicates binding activity from 50 to 90%)”; in that of `C=CC(=O)N1C[C@H](C)N(c2nc(N3CC(N(C)C4CCC4)C3)nc3c(F)c(-c4c(C)ccc5[nH]ncc45)c(Cl)cc23)C[C@H]1C` [Compound 143, 1-((2R,5S)-4-(6-chloro-2-(3-(cyclobutyl (methyl)amino)azetidin-1-yl)-8-fluoro-7-(5-methyl-1H-indazol-4-yl)quinazolin-4-yl)-2,5-dimethyl-piperazin-1-yl) prop-2-en-1-one], “+++ (+++ indicates binding activity greater than 90%)”.
With `C=CC(=O)N1C[C@H](C)N(c2nc(N3CC(N(C)C4CCC4)C3)nc3c(F)c(-c4c(C)ccc5cn[nH]c45)c(Cl)cc23)C[C@H]1C` [Compound 144, 1-((2R,5S)-4-(6-chloro-2-(3-(cyclobutyl (methyl)amino)azetidin-1-yl)-8-fluoro-7-(6-methyl-1H-indazol-7-yl)quinazolin-4-yl)-2,5-dimethyl-piperazin-1-yl) prop-2-en-1-one] the entry was “+++ (+++ indicates binding activity greater than 90%)”; with `C=CC(=O)N1C[C@H](C)N(c2nc(NC3CCN(C4CC4)CC3)nc3c(F)c(-c4c(C)ccc5cn[nH]c45)c(Cl)cc23)C[C@H]1C` [Compound 145, 1-((2R,5S)-4-(6-chloro-2-((1-cyclopropyl-piperidin-4-yl)amino)-8-fluoro-7-(6-methyl-1H-indazol-7-yl)quinazolin-4-yl)-2,5-dimethyl-piperazin-1-yl) prop-2-en-1-one], “++ (++ indicates binding activity from 50 to 90%)”.
